In patent US20180369186A1, “METHOD FOR MODULATING AUTOPHAGY AND APPLICATIONS THEREOF” (JAWAHARLAL NEHRU CENTRE FOR ADVANCED SCIENTIFIC RESEARCH, priority 2015, published 2018):

Assays:
[1] = Rotarod test in MPTP mice; type: in vivo; conditions: 5 mg/kg
Procedure: All the behavioural experiments are done on 3-4 month old, male C57/B16 mice. Experimenters are blind to the drug injected animals. Experimenters handle mice used for behavioral experiments for 3 consecutive days prior to the training paradigm. Behavioral experiments are designed in an order of low to high stress activity for mice. Therefore, Open Field Test is conducted in forenoon while rotarod is performed in the afternoon.
Mice were habituated to the behaviour room for 15 minutes every day before start of experiments. The light intensity is maintained at 100 lux throughout the experiment. Mice are weighed every day before training or test to ensure their good health. Mice are randomly allocated into three treatment cohorts: placebo control, MPTP and 6-Bio. Data is plotted using GraphPad prism 5 software.
The rotarod instrument is custom made at the Mechanical workshop, National Centre of Biological Sciences, Bengaluru, India. The rotating rod (diameter 3.3 cm) is made of Delrin and is textured to enhance the grip of mice. The rod is fixed at a height of 30 cm from the cushioned platform where mice fell on to during training and test. The rod is partitioned into three areas of 9.3 cm distance between each partition using discs (40 cm diameter) made of Teflon. […] The entire trial is video recorded using a DSLR camera (Nikon D5100) and latencies are scored manually. […]

MAP1LC3B = MAP1LC3B conversion assay in HeLa cells; type: cell-based, human
Procedure: Total cell lysates are electrophoresed on different 1 percentages of SDS-PAGE based on the desired protein size and transferred onto PVDF membrane at constant current of 2 Ampere for 30 minutes (Transblot turbo, Bio-Rad Inc, USA). Transfer is confirmed by Ponceau S staining of blot and the blots scanned are used as loading controls. Blots are incubated overnight with 5% skim milk in primary antibody (Anti-GFP, Roche #11814460001, Anti-MAP1LC3B, CST #L7543). Secondary antibody used at 1:10.000 is goat anti-mouse (Bio-7 Rad #172-1011) or goat anti-rabbit antibody (Bio-Rad #172-1019) conjugated to HRP. Blots are developed by using ECL substrate (Thermo Scientific #34087 or Bio-Rad #170-5061) and images captured using auto capture program in Syngene G-Box, UK. image J (NIH) are used for quantitation of band intensities.
For mammalian cells, following appropriate treatments, cells are washed with ice cold PBS. Cells are then lysed in 100 μl of sample buffer (10% w/v SDS, 10 mM DTT, 20% v/v glycerol, 0.2 Tris-HCL pH 6.8, 0.05% w/v bromophenol blue) and then collected using a rubber cell scraper. The lysates are boiled at 99° C. for 15 minutes and stored at −20° C.

[2] = system: autophagy (degradation of firefly luciferase); assay: Dual luciferase assay to monitor autophagy in real time; type: cell-based, S. cerevisiae; conditions: 1 μM, 10 μM, 25 μM and 50 μM
Text: The S. cerevisiae shuttle vectors pRS306 (URA) and pRS305 (LEU) are used to clone the POT1 promoter and the Firefly and Renilla luciferase genes, respectively. The oleate responsive region of the POT1 promoter is amplified from yeast genomic DNA and along with the firefly and Renilla luciferase genes (firefly gene from pMY30 and Renilla gene from pRL-TK) is cloned into these vectors to obtain the constructs pPM3 and pPM5. These plasmid constructs are linearized using suitable restriction enzymes in the selection marker and transformed into wild type strains of S. cerevisiae and P. pastoris by standard transformation methods-Lithium acetate or PEG based transformation. […]
To validate the luciferase assay developed in the laboratory, it is compared to the conventional Pot1-GFP processing assay, Both pexophagy and general autophagy are measured by following the rates of degradation of firefly and Renilla activities (FIG. 1A).
Thus, a 3 standard deviation (SD) parameter is used as a criterion to obtain the hits from the primary screen. […] Both the inhibitors show a dose dependent inhibition in autophagy as determined using luciferase assay wherein inhibition by concentrations 1 μM, 10 μM, 25 μM and 50 μM of the inhibitors are assessed and inhibition is observed to increase as concentration increases from 1 μM to 50 μM. […]

[3] = nutrient-rich and starvation conditions

Row | SMILES | latency to fall, Co versus MPTP ([1]; MPTP+Co, day 13) | latency to fall, Post versus MPTP ([1]; administered after 48 h MPTP) | MAP1LC3B-II/MAP1LC3B-I and MAP1LC3B-II/TUBB ratios, prolonged treatment (MAP1LC3B; 12 hours) | MAP1LC3B-II/TUBB ratio with BFA (autophagosome synthesis) (MAP1LC3B; in the presence of BFA) | MAP1LC3B-II/MAP1LC3B-I ratio (MAP1LC3B; [3]) | MAP1LC3B-II/TUBB ratio (MAP1LC3B; [3]) | effect on rates of degradation of firefly luciferase (inhibition of autophagy) [2]
1 | O=C1Nc2cc(Br)ccc2/C1=C1/Nc2ccccc2/C1=N\O [6-Bio, (2′Z,3′E)-6-Bromoindirubin-3′-oxime] | increased | not protected |  |  |  |  | 
2 | Cc1ccc(S(=O)(=O)/C=C/C#N)cc1 [Bay11, 3-[(4-methylphenyl)sulfonyl]-(2E)-propenenitrile] |  |  | significant reduction | reduces MAP1LC3B12 II/TUBB ratio | decreases MAP1LC3B-II/MAP1LC3B-I ratio | no significant changes | dose dependent effect
